In brackets after ≈: the same amount, converted by molar mass.
What was measured:
[1] = system: SNB-19 (human glioblastoma); experiment: WST-1 proliferation assay, SNB-19; assay type: cell-based; conditions: SNB-19 cells, 72 h exposure; for IC50: Homo sapiens, SNB-19, 72 h, read-out: Antiproliferative activity IC50 SNB-19
Description: (§1) Compounds were evaluated for their anticancer activity using three cultured cell lines: SNB-19 (human glioblastoma, DSMZ - German Collection of Microorganisms and Cell Cultures, Braunschweig, Germany), C-32 (human amelanotic melanoma, ATCC-American Type Culture Collection, Manassas, VA, USA), MDA-MB-231 (human adenocarcinoma mammary gland, ATCC, Manassas, VA, USA), and HFF-1 (human fibroblast cell line, ATCC, Manassas, VA, USA). The cultured cells were kept at 37 °C and 5% CO2. The cells were seeded (1 × 10^4 cells/well/100 μL DMEM supplemented with 10% FCS and streptomycin and penicillin) using 96-well plates (Corning). The cells were counted in a hemocytometer (Burker’s chamber) using a phase contrast Olympus IX50 microscope equipped with Sony SSC-DC58 AP camera and Olympus DP10 digital camera.
(§2) The antiproliferative effect of the compounds obtained from both the cancer and the normal cells was determined using the Cell Proliferation Reagent WST-1 assay (Roche Diagnostics, Mannheim, Germany). This colorimetric assay is based on the viable cell’s ability to cause the bright red-colored stable tetrazolium salt (2-(4-iodophenyl)-3-(4-nitrophenyl)-5-(2,4-disulfophenyl)-2H-tetrazolium, monosodium salt) to cleave to the dark red soluble formazan by cellular enzymes. An expansion in the number of viable cells results in an increase in the overall activity of mitochondrial dehydrogenases in the sample. An increase in the amount of formazan dye formed correlates to the number of metabolically active cells in the culture. The formazan dye produced by metabolically active cells is quantified by a scanning ELISA reader that measures the absorbance of the dye solution at appropriate wavelengths. The examined cells were exposed to the tested compounds for 72 h at various concentrations between 0.1 and 100 μg/mL (prepared initially at a concentration of 1 mg/mL in DMSO). The control was performed in order to check that DMSO has no effect on the cells at the concentration used. The cells were incubated with WST-1 (10 μL) for 1 h and the absorbance of the samples was measured against a background control at 450 nm using a microplate reader with a reference wavelength at 600 nm. The results are expressed as the means of at least two independent experiments performed in triplicate. […] The IC50 values (a concentration of a compound that is required for 50% inhibition) were calculated from the dose–response relationship with respect to control.

[2] = system: C-32 (human amelanotic melanoma); experiment: WST-1 proliferation assay, C-32; assay type: cell-based; conditions: C-32 cells, 72 h exposure; for IC50: Homo sapiens, C32, 72 h, read-out: Antiproliferative activity IC50 C-32
Description: as §1, §2

[3] = system: MDA-MB-231 (human adenocarcinoma mammary gland); experiment: WST-1 proliferation assay, MDA-MB-231; assay type: cell-based; conditions: MDA-MB-231 cells, 72 h exposure; for IC50: Homo sapiens, MDA-MB-231, 72 h, read-out: Antiproliferative activity IC50 MDA-MB-231
Description: as §1, §2

[4] = system: HFF-1 (human fibroblast cell line); experiment: WST-1 proliferation assay, normal fibroblasts HFF-1; assay type: cell-based; conditions: for IC50: read-out: Antiproliferative activity IC50 HFF-1
Description: as §1
as §2, with “The control was performed in order to check that DMSO has no effect on the cells at the concentration used.” left out

[5] = normal human fibroblasts HFF-1, 72 h exposure, WST-1

Row | Compound | Antiproliferative activity IC50 SNB-19 [1] [µg/mL] | Antiproliferative activity IC50 C-32 [2] [µg/mL] | Antiproliferative activity IC50 MDA-MB-231 [3] [µg/mL] | Antiproliferative activity IC50 HFF-1 [4, 5] [µg/mL] | IC50 [1] [µg/mL] | IC50 [2] [µg/mL] | IC50 [3] [µg/mL] | IC50 [4, 5] [µg/mL] | melting point [°C] | cytotoxicity on the normal human fibroblasts (HFF-1), in words [4]
1 | N.N.[Cl][Pt][Cl] [Cisplatin, cisplatin, reference compound] | 1.46 | 5.71 | 11.85 | 1.21 |  |  |  |  |  | 
2 | Cn1cnc2nc(Cl)nc(SCC#CCN3CCCCC3)c21 [Compound 2a, 2-Chloro-6-(4-N-piperidinylbut-2-ynylthio)-7-methylpurine] |  |  |  |  | 28.8 (≈ 85.7 µM) | 21 (≈ 62.6 µM) | 33.4 (≈ 99.4 µM) | 35.4 (≈ 105 µM) | 122 to 124 | 
3 | Cn1cnc2nc(Cl)nc(SCC#CCN3CCOCC3)c21 [Compound 2b, 2-Chloro-6-(4-N-morpholinylbut-2-ynylthio)-7-methylpurine] |  |  |  |  | 35.4 (≈ 105 µM) | 125 (≈ 370 µM) | 66.3 (≈ 196 µM) | 20.1 (≈ 59.5 µM) | 168 to 169 | 
4 | CCN(CC)CC#CCSc1nc(Cl)nc2ncn(C)c12 [Compound 2c, 2-Chloro-6-(4-diethylaminobut-2-ynylthio)-7-methylpurine] |  |  |  |  | 17.4 (≈ 53.7 µM) | 11.9 (≈ 36.7 µM) | 48.1 (≈ 148 µM) | 8.65 (≈ 26.7 µM) | 117 to 118 | 
5 | C#CCSc1nc(SCC#C)c2c(ncn2C)n1 [Compound 4, 2,6-di(prop-2-ynylthio)-7-methylpurine] |  |  |  |  | 15 (≈ 54.7 µM) |  |  | 10 (≈ 36.4 µM) | 162 to 164 | relatively weak cytotoxicity
6 | Cn1cnc2nc(SCC#CCN3CCCC3)nc(SCC#CCN3CCCC3)c21 [Compound 5a, 2,6-Di(4-N-pyrrolidinylbut-2-ynylthio)-7-methylpurine] |  |  |  |  | 19.4 (≈ 44 µM) | 6.81 (≈ 15.5 µM) | 19.9 (≈ 45.3 µM) | 10 (≈ 22.7 µM) | 97 to 99 | 
7 | Cn1cnc2nc(SCC#CCN3CCCCC3)nc(SCC#CCN3CCCCC3)c21 [Compound 5b, 2,6-Di(4-N-piperidinylbut-2-ynylthio)-7-methylpurine] |  |  |  |  | 4.64 (≈ 9.9 µM) | 6.39 (≈ 13.6 µM) | 7.35 (≈ 15.7 µM) | 3.98 (≈ 8.49 µM) | 130 to 132 | 
8 | Cn1cnc2nc(SCC#CCN3CCOCC3)nc(SCC#CCN3CCOCC3)c21 [Compound 5c, 2,6-Di(4-N-morpholinylbut-2-ynylthio)-7-methylpurine] |  |  |  |  | 21.5 (≈ 45.6 µM) | 0.35 (≈ 0.741 µM) | 50.8 (≈ 107 µM) | 0.37 (≈ 0.783 µM) | 121 to 123 | 
9 | CCN(CC)CC#CCSc1nc(SCC#CCN(CC)CC)c2c(ncn2C)n1 [Compound 5d, 2,6-Di(4-diethylaminobut-2-ynylthio)-7-methylpurine] |  |  |  |  | 48.9 (≈ 110 µM) | 23.9 (≈ 53.7 µM) | 38.5 (≈ 86.6 µM) | 5.95 (≈ 13.4 µM) | 77 to 79 | 
10 | C#CCSc1nc2c(c(=O)[nH]c(=O)n2C)n1C [Compound 9, 8-(prop-2-ynylthio)-3,7-dimethylxanthine] | 191.10 | 103.46 | 169.34 |  | > 100 | > 100 | > 100 | 154 (≈ 614 µM) | 252 to 253 | 
11 | Cn1c(SCC#CCN2CCCC2)nc2c1c(=O)[nH]c(=O)n2C [Compound 10a, 8-(4-N-pyrrolidinylbut-2-ynylthio)-3,7-dimethylxanthine] |  |  |  |  | 177 (≈ 530 µM) | 51.1 (≈ 153 µM) | 472 (≈ 1410 µM) | 34.3 (≈ 103 µM) | 195 to 197 | 
12 | Cn1c(SCC#CCN2CCCCC2)nc2c1c(=O)[nH]c(=O)n2C [Compound 10b, 8-(4-N-piperidinylbut-2-ynylthio)-3,7-dimethylxanthine] |  |  |  |  | 166 (≈ 478 µM) | 355 (≈ 1020 µM) | 364 (≈ 1050 µM) | 30.4 (≈ 87.5 µM) | 223 to 225 | 
13 | Cn1c(SCC#CCN2CCOCC2)nc2c1c(=O)[nH]c(=O)n2C [Compound 10c, 8-(4-N-morpholinylbut-2-ynylthio)-3,7-dimethylxanthine] | 1.69 |  |  |  | < 1.7 | 223 (≈ 637 µM) | 6.54 (≈ 18.7 µM) | 5.87 (≈ 16.8 µM) | 174 to 176 | 
14 | CCN(CC)CC#CCSc1nc2c(c(=O)[nH]c(=O)n2C)n1C [Compound 10d, 8-(4-diethylaminobut-2-ynylthio)-3,7-dimethylxanthine] | 1.48 |  |  |  | < 1.7 | 26.4 (≈ 78.6 µM) | 68.1 (≈ 203 µM) | 3.68 (≈ 11 µM) | 186 to 188 | 
15 | C#CCSc1nc(Cl)nc2nc(SCC#C)n(C)c12 [Compound 14, 2-chloro-6,8-di(prop-2-ynylthio)-7-methylpurine] |  |  |  |  |  | 270 (≈ 875 µM) | 10 (≈ 32.4 µM) | 20.1 (≈ 65.1 µM) | 161 to 163 | relatively weak cytotoxicity
16 | Cn1c(SCC#CCN2CCCC2)nc2nc(Cl)nc(SCC#CCN3CCCC3)c21 [Compound 15a, 2-Chloro-6,8-di(4-N-pyrrolidinylbut-2-ynylthio)-7-methylpurine] | 0.52 | 4.55 | 3.83 |  | < 1 | 3.8 to 4.5 (≈ 8 to 9.47 µM) | 3.8 to 4.5 (≈ 8 to 9.47 µM) | 3.63 (≈ 7.64 µM) | 133 to 135 | 
17 | Cn1c(SCC#CCN2CCOCC2)nc2nc(Cl)nc(SCC#CCN3CCOCC3)c21 [Compound 15c, 2-Chloro-6,8-di(4-N-morpholinylbut-2-ynylthio)-7-methylpurine] |  |  |  |  | 26.1 (≈ 51.5 µM) |  | 74 (≈ 146 µM) | 36.4 (≈ 71.7 µM) | 112 to 113 | relatively weak cytotoxicity

— publication PMC5904222, “Synthesis and anticancer activity of multisubstituted purines and xanthines with one or two propynylthio and aminobutynylthio groups” (Medicinal Chemistry Research, 2018)
